Source: patent US10004732B2 (Novartis AG, priority 2014, dated 2018)
Read-outs that look alike come from different tables or passages of the source.

Key:
[1] = target: PI 3-kinase delta (Homo sapiens, UniProt O00329); test: TR-FRET Adapta assay, assay F
[2] = target: PI 3-kinase gamma (Homo sapiens, UniProt P48736); test: TR-FRET Adapta assay, assay E; type: biochemical; settings: read-out: Assay E PI3Kγ IC50
[3] = target: mTOR (Homo sapiens, UniProt P42345); test: Lanthascreen kinase binding assay, assay G; settings: read-out: Assay G mTOR IC50
Procedure: Lanthascreen™ Kinase Binding Assay for mTOR (G)
Binding of an inhibitor to the kinase competes for binding with the tracer, resulting in a loss of FRET.
50 nL of compound dilutions were dispensed onto white 384-well small volume polystyrene plate.

[4] = target: PI 3-kinase beta (Homo sapiens, UniProt P42338); test: Kinase Glo Luminescent Kinase Assay (Kglo), assay B; type: biochemical; settings: read-out: Assay B PI3Kβ IC50
[5] = Microsomal clearance assay (M)
Procedure: The experiments were performed in 96-well glass plates at 37° C. on an automated Tecan EVO platform. Test compounds at a concentration of 10 mM in pure DMSO were diluted 1:1000 in water to 10 μM. […] Reactions were initiated by the addition of 150 μL of a cofactor solution containing 2 mM NADPH.

[6] = target: PI 4-kinase beta (Homo sapiens, UniProt Q9UBF8); test: Kinase Glo Luminescent Kinase Assay (Kglo), assay D; type: biochemical; settings: read-out: Assay D PI4Kβ IC50
[7] = target: Vps34 (Homo sapiens, UniProt Q8NEB9); test: Kinase Glo Luminescent Kinase Assay (Kglo), assay C; type: biochemical; settings: read-out: Assay C VPS34 IC50
[8] = target: PI 3-kinase alpha (Homo sapiens, UniProt P42336); test: Kinase Glo Luminescent Kinase Assay (Kglo), assay A; type: biochemical; settings: read-out: Assay A PI3Kα IC50
[9] = intrinsic clearance in rat liver microsomes
[10] = rat liver microsomes, intrinsic clearance

Sequence of Vps34 (Q8NEB9 whole entry, species assumed): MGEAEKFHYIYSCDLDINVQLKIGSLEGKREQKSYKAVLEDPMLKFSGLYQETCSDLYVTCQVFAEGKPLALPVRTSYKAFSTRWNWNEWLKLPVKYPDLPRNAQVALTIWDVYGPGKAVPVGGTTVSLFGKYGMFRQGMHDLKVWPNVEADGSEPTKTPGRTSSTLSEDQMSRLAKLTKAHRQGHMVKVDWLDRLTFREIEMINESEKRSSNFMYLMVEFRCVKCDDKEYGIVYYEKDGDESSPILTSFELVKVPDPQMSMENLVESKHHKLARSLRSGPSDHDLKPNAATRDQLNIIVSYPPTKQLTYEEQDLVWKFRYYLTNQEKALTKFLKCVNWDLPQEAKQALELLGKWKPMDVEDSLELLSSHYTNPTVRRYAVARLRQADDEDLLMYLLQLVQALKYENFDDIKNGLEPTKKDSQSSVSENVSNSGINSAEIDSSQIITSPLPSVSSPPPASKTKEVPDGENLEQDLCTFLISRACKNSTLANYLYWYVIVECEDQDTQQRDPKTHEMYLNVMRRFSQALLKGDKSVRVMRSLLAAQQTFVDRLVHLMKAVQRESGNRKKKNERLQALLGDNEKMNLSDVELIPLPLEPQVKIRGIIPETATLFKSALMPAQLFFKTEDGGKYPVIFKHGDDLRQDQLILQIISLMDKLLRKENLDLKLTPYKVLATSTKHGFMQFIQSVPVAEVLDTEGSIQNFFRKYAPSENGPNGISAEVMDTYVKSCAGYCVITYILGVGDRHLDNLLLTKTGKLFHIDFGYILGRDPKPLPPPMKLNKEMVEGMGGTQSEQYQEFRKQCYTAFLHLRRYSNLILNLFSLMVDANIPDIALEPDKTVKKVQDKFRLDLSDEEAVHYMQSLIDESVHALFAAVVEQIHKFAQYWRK
Sequence of PI 3-kinase gamma (P48736 whole entry): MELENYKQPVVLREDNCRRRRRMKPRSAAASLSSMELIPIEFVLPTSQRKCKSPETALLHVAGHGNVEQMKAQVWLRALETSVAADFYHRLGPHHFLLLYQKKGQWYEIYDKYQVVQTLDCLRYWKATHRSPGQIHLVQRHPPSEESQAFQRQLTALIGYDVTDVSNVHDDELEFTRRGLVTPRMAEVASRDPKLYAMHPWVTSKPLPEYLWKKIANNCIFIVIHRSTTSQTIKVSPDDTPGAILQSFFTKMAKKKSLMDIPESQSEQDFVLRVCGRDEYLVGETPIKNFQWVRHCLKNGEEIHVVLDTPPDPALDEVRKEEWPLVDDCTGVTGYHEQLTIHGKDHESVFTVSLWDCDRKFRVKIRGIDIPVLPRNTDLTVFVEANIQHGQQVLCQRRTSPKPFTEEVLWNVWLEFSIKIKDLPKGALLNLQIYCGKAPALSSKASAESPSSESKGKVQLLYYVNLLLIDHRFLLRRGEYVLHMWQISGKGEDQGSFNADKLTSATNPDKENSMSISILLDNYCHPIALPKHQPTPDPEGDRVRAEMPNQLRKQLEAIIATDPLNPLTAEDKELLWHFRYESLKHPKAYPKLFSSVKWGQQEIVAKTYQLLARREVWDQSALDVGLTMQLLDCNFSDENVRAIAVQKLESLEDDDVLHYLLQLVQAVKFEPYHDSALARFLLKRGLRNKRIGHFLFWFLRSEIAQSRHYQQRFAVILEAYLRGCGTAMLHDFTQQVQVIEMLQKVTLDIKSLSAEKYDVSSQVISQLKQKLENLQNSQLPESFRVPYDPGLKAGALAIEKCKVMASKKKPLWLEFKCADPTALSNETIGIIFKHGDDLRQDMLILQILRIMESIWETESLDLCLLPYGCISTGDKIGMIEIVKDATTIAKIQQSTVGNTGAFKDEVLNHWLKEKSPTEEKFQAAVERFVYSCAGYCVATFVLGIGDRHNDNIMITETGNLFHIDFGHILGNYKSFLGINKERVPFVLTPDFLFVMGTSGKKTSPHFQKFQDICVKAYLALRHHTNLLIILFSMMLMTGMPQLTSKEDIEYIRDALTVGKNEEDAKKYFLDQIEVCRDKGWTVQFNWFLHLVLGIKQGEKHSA
Sequence of PI 3-kinase beta (P42338 whole entry): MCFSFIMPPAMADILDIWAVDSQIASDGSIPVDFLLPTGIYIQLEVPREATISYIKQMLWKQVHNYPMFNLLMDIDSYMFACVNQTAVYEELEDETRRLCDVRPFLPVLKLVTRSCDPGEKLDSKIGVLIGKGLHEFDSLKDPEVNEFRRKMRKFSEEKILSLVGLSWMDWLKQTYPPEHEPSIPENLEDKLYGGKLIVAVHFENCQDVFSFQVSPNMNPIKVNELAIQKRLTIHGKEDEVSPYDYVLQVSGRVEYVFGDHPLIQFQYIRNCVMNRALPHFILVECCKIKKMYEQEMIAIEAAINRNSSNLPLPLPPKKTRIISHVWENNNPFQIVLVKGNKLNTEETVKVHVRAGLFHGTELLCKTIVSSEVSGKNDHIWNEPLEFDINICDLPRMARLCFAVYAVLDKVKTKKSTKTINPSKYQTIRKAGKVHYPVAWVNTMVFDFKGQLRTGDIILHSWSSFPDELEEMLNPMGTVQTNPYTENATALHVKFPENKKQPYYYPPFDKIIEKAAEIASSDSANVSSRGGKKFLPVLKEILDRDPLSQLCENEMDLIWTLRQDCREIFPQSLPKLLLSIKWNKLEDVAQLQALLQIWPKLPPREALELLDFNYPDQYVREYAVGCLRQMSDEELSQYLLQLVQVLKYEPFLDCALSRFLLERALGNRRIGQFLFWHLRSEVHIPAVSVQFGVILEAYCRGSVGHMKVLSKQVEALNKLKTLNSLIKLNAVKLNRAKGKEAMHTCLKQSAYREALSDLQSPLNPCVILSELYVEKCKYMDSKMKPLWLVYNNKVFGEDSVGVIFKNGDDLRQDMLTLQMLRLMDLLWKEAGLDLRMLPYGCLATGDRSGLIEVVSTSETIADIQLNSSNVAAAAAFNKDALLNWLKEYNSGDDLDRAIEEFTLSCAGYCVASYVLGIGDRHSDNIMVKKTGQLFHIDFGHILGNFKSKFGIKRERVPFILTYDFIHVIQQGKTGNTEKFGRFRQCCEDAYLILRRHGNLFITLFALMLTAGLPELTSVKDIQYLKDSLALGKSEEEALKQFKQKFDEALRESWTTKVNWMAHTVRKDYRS
Sequence of PI 3-kinase beta (P27986 461-568 partner): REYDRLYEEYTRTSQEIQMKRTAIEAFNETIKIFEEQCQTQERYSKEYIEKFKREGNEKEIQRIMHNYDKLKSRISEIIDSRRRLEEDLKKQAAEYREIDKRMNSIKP
Sequence of PI 4-kinase beta (Q9UBF8 whole entry): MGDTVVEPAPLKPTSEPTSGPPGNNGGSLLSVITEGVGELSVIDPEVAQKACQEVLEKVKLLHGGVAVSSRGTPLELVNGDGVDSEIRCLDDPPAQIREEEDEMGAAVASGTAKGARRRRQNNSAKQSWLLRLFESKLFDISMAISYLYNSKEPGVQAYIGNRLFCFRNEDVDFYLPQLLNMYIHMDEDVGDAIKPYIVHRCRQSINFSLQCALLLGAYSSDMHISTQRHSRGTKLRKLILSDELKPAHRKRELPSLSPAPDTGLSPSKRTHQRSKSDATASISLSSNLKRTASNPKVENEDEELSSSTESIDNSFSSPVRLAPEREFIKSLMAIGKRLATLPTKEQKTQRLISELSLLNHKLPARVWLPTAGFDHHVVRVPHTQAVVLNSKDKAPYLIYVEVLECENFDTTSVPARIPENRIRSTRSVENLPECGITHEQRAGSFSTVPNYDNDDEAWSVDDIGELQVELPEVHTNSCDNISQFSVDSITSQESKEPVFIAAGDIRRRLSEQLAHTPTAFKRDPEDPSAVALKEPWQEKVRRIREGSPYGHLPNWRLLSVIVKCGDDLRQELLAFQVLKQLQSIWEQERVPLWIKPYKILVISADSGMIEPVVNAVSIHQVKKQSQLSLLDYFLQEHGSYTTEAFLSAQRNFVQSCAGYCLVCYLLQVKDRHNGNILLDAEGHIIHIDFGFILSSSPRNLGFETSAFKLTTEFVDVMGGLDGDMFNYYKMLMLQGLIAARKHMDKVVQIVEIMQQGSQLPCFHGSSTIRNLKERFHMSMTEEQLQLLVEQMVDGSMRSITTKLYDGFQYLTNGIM
Sequence of PI 3-kinase alpha (P42336 whole entry): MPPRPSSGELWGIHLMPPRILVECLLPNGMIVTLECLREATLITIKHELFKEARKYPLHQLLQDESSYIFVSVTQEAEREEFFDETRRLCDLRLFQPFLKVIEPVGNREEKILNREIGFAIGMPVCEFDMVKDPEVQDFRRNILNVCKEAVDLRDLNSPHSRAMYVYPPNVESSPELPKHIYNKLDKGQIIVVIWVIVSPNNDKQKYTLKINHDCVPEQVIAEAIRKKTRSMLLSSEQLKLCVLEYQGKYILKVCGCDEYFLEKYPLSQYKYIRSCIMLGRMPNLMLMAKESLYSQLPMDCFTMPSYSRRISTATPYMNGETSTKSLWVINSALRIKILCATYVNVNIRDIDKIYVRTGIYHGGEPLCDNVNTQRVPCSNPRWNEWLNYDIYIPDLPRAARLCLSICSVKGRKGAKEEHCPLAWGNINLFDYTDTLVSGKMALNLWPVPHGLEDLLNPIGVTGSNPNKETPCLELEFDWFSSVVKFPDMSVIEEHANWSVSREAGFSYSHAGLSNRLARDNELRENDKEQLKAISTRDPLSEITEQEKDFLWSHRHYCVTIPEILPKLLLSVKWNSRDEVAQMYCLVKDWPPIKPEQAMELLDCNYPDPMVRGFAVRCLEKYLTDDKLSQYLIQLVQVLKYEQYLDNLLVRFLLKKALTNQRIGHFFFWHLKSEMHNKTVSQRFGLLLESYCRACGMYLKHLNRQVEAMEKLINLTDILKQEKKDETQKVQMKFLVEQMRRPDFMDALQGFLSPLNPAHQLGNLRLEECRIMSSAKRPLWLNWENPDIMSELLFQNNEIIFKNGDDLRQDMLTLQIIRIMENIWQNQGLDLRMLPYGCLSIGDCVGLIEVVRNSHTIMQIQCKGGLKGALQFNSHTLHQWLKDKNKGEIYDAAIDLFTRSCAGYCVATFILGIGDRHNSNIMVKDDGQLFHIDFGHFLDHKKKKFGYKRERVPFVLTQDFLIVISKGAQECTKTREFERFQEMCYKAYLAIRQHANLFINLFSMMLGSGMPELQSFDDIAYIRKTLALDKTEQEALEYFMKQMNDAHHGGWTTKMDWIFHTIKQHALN

Row | Compound | IC50 ([1]; read-out: Assay F PI3Kδ IC50) | IC50 [2] | IC50 [3] | IC50 [4] | Assay M RLM CI(int) [5, 9] | IC50 [6] | IC50 [7] | IC50 [8] | Assay M RLM CI(int) [5, 10] | IC50 [1]
1 | Cc1cc(-c2nc(-c3cc(S(=O)(=O)N4CCC(N)CC4)ccc3C)cnc2N)ccn1 [Example 129.41, 5-(5-(4-aminopiperidin-1-ylsulfonyl)-2-methylphenyl)-3-(2-methylpyridin-4-yl)pyrazin-2-amine] | 2300 nM | 320 nM | > 9100 nM | 4000 nM | 13 µL/min/mg | > 9100 nM | > 9100 nM | 1600 nM | – | –
2 | Cc1ncc(-c2nc(-c3cc(S(=O)(=O)N[C@@H]4CCOC4)ccc3C)cnc2N)s1 [Example 45.7a, (R)-3-(5-Amino-6-(2-methylthiazol-5-yl)pyrazin-2-yl)-4-methyl-N-(tetrahydrofuran-3-yl)benzenesulfonamide or (5)-3-(5-Amino-6-(2-methylthiazol-5-yl)pyrazin-2-yl)-4-methyl-N-(tetrahydrofuran-3-yl)benzenesulfonamide] | – | – | – | – | 151 µL/min/mg | – | – | – | – | –
3 | Cc1ccc(S(=O)(=O)N2CCOCC2)cc1-c1cnc(N)c(C(=O)c2cccnc2)c1 [(i), reference compound] | – | – | – | – | – | – | – | – | 47 µL/min/mg | –
4 | Cc1cc(-c2nc(-c3cc(S(=O)(=O)N[C@@H]4CCC[C@H]4N)ccc3C)cnc2N)ccn1 [Example 129.39, 3-(5-amino-6-(2-methylpyridin-4-yl)pyrazin-2-yl)-N-((1R,2R)-2-aminocyclopentyl)-4-methylbenzenesulfonamide] | – | 110 nM | > 9100 nM | 7500 nM | >924 µL/min/mg | > 9100 nM | > 9100 nM | 730 nM | – | 910 nM
5 | CNC(=O)c1nc(-c2ccc(Cl)c(S(=O)(=O)Nc3cccc(F)c3C)c2)cnc1N [(xi), reference compound] | – | – | – | – | – | – | – | – | 271 µL/min/mg | –
6 | Cc1cc(-c2nc(-c3cc(S(=O)(=O)NC[C@H](C)O)ccc3C)cnc2N)ccn1 [Example 129.9, (S)-3-(5-amino-6-(2-methylpyridin-4-yl)pyrazin-2-yl)-N-(2-hydroxypropyl)-4-methylbenzenesulfonamide] | 940 nM | 45 nM | > 9100 nM | 6900 nM | 20 µL/min/mg | > 9100 nM | > 9100 nM | 420 nM | – | –
7 | Cc1ccc(S(=O)(=O)NCC(N)=O)cc1-c1cnc(N)c(-n2cncn2)n1 [Example 133, 2-(3-(5-Amino-6-(1H-1,2,4-triazol-1-yl)pyrazin-2-yl)-4-methylphenylsulfonamido)acetamide] | 1140 nM | 110 nM | > 9550 nM | 7800 nM | 19 µL/min/mg | 8900 nM | > 9550 nM | 1020 nM | – | –
8 | CN1CCN(S(=O)(=O)c2cccc(-c3cnc(N)c(C(=O)c4cccnc4)c3)c2)CC1 [(ii), reference compound] | – | – | – | – | – | – | – | – | 233 µL/min/mg | –
9 | Cc1ccc(S(=O)(=O)N2CCOCC2)cc1-c1cnc(N)c(C(=O)c2cccnc2)n1 [(ix), reference compound] | – | – | – | – | – | – | – | – | 267 µL/min/mg | –
10 | Cc1cn(-c2nc(-c3cc(S(=O)(=O)NCC(C)(C)O)ccc3C)cnc2N)c(C)n1 [Example 50, 3-(5-Amino-6-(2,4-dimethyl-1H-imidazol-1-yl)pyrazin-2-yl)-N-(2-hydroxy-2-methylpropyl)-4-methylbenzenesulfonamide] | > 10000 nM | 850 nM | > 10000 nM | 2800 nM | 28 µL/min/mg | > 10000 nM | > 10000 nM | 2500 nM | – | –
11 | Cc1ncc(-c2nc(-c3cc(S(=O)(=O)NCC4(C)COC4)ccc3C)cnc2N)s1 [Example 120, 3-(5-Amino-6-(2-methylthiazol-5-yl)pyrazin-2-yl)-4-methyl-N-((3-methyloxetan-3-yl)methyl)benzenesulfonamide] | 60 nM | 4 nM | – | 1000 nM | 95 µL/min/mg | 2500 nM | 1300 nM | 20 nM | – | –
12 | Nc1ncc(-c2ccc(Cl)c(S(=O)(=O)N[C@H]3CC[C@H](O)CC3)c2)nc1C(=O)c1cccnc1 [(v), reference compound] | – | – | – | – | – | – | – | – | 173 µL/min/mg | –
13 | Cc1ncc(-c2nc(-c3cc(S(=O)(=O)NCC(F)(F)F)ccc3C)cnc2N)s1 [Example 45.5, 3-(5-Amino-6-(2-methylthiazol-5-yl)pyrazin-2-yl)-4-methyl-N-(2,2,2-trifluoroethyl)benzenesulfonamide] | – | – | – | – | 147 µL/min/mg | 780 nM | 650 nM | – | – | –
14 | COCCNS(=O)(=O)c1cc(-c2cnc(N)c(C(=O)c3cccnc3)n2)c(F)cc1F [(vii), reference compound] | – | – | – | – | – | – | – | – | 283 µL/min/mg | –
15 | COCCNS(=O)(=O)c1cc(-c2cnc(N)c(C(=O)c3cccnc3)n2)ccc1Cl [(vi), reference compound] | – | – | – | – | – | – | – | – | 630 µL/min/mg | –
16 | COCCNS(=O)(=O)c1cccc(-c2cnc(N)c(C(=O)c3cccnc3)n2)c1 [(iv), reference compound] | – | – | – | – | – | – | – | – | 465 µL/min/mg | –
17 | Cc1ncc(-c2nc(-c3cc(S(=O)(=O)NCC4CCOCC4)ccc3C)cnc2N)s1 [Example 45.2, 3-(5-Amino-6-(2-methylthiazol-5-yl)pyrazin-2-yl)-4-methyl-N-((tetrahydro-2H-pyran-4-yl)methyl)benzenesulfonamide] | 50 nM | 18 nM | – | 370 nM | 194 µL/min/mg | 5800 nM | 6000 nM | 40 nM | – | –
18 | Cc1nc(N)ncc1-c1ccc(Cl)c(S(=O)(=O)NCCO)c1 [(xii), reference compound] | – | – | – | – | – | – | – | – | 9 µL/min/mg | –
19 | Cc1ncc(-c2nc(-c3cc(S(=O)(=O)N[C@@H]4CCOC4)ccc3C)cnc2N)s1 [Example 45.7b, (R)-3-(5-Amino-6-(2-methylthiazol-5-yl)pyrazin-2-yl)-4-methyl-N-(tetrahydrofuran-3-yl)benzenesulfonamide or (5)-3-(5-Amino-6-(2-methylthiazol-5-yl)pyrazin-2-yl)-4-methyl-N-(tetrahydrofuran-3-yl)benzenesulfonamide] | – | – | – | – | 135 µL/min/mg | – | – | – | – | –
20 | Cc1ccc(S(=O)(=O)N2CC(F)(F)C(F)(F)C2)cc1-c1cnc(N)c(-n2cncn2)n1 [Example 127.8] | > 10000 nM | 1000 nM | > 10000 nM | > 10000 nM | – | > 10000 nM | > 10000 nM | 6000 nM | – | –
21 | Cc1ccc(S(=O)(=O)NC(C)CO)cc1-c1cnc(N)c(-n2cncn2)n1 (stereo not drawn) [Example 127.42] | > 10000 nM | 800 nM | > 10000 nM | 5900 nM | – | 7100 nM | > 10000 nM | 1700 nM | – | –
22 | Cc1ccc(S(=O)(=O)NCC2(CO)CC2)cc1-c1cnc(N)c(-n2cncn2)n1 [Example 127.38] | 2800 nM | 100 nM | > 10000 nM | 3500 nM | – | 6700 nM | > 10000 nM | 540 nM | – | –
23 | CC(C)(C)c1ccc(C(=O)c2cc(-c3cccc(S(=O)(=O)NC4CC4)c3)cnc2N)cc1 [(iii), reference compound] | – | – | – | – | – | – | – | – | 219 µL/min/mg | –
24 | Cc1ccc(S(=O)(=O)NC2CCOC2=O)cc1-c1cnc(N)c(-n2cncn2)n1 (stereo not drawn) [Example 127.30] | 1600 nM | 130 nM | > 10000 nM | 5300 nM | – | 7700 nM | > 10000 nM | 1900 nM | – | –
25 | Cc1cc(-c2nc(-c3cc(S(=O)(=O)NC[C@H]4CCC[C@@H](CN)C4)ccc3C)cnc2N)ccn1 [Example 129.42, 3-(5-amino-6-(2-methylpyridin-4-yl)pyrazin-2-yl)-N-(((1S,3R)-3-(aminomethyl)cyclohexyl)methyl)-4-methylbenzenesulfonamide] | 1700 nM | 150 nM | > 9100 nM | 6600 nM | – | > 9100 nM | > 9100 nM | 2000 nM | – | –
26 | Cc1cc(-c2nc(-c3cc(S(=O)(=O)NC4CCN(C)CC4)ccc3C)cnc2N)ccn1 [Example 129.22, 3-(5-amino-6-(2-methylpyridin-4-yl)pyrazin-2-yl)-4-methyl-N-(1-methylpiperidin-4-yl)benzenesulfonamide] | 7500 nM | 280 nM | > 9100 nM | > 9100 nM | – | > 9100 nM | > 9100 nM | 1500 nM | – | –
27 | Cc1cc(-c2nc(-c3cc(S(=O)(=O)N4CC5(CNC5)C4)ccc3C)cnc2N)ccn1 [Example 129.37, 5-(5-(2,6-diazaspiro[3.3]heptan-2-ylsulfonyl)-2-methylphenyl)-3-(2-methylpyridin-4-yl)pyrazin-2-amine] | 2800 nM | 540 nM | > 9100 nM | > 9100 nM | – | 8300 nM | > 9100 nM | 1300 nM | – | –
28 | Cc1ncc(-c2nc(-c3cc(S(=O)(=O)NCCC(C)(C)O)ccc3C)cnc2N)o1 [Example 119.40] | 180 nM | 23 nM | > 10000 nM | 3500 nM | – | 6200 nM | > 10000 nM | 150 nM | – | –
29 | Cc1ccc(S(=O)(=O)NCC2(CO)CCC2)cc1-c1cnc(N)c(-n2cncn2)n1 [Example 127.49] | 320 nM | 13 nM | 7000 nM | 460 nM | – | 4000 nM | > 10000 nM | 100 nM | – | –
